Reference: PubChem BioAssay (NCI)
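Five compound concentrations were applied to cells in 96-well plates for 48 hours; endpoints were derived by simple linear interpolation of the resulting dose-response curve. TGI: concentration producing complete growth inhibition.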

Assays:
Experiment in all cases: DTP human tumour cell line panel, 48 h
[1] = tested on: LXFL 529 NSCLC
[2] = tested on: SNB-75 CNS
[3] = tested on: SF-295 CNS
[4] = tested on: U251 CNS
[5] = tested on: K-562 leukemia
[6] = tested on: TK-10 renal
[7] = tested on: UACC-62 melanoma
[8] = tested on: MOLT-4 leukemia
[9] = tested on: KM20L2 colon
[10] = tested on: CCRF-CEM leukemia
[11] = tested on: DMS 114 small cell lung
[12] = tested on: SNB-78 CNS
[13] = tested on: SNB-19 CNS
[14] = tested on: NCI-H460 lung
[15] = tested on: HCC-2998 colon
[16] = tested on: OVCAR-4 ovarian
[17] = tested on: M14 melanoma
[18] = tested on: SK-OV-3 ovarian
[19] = tested on: IGROV1 ovarian
[20] = tested on: HCT-116 colon
[21] = tested on: DMS 273 small cell lung
[22] = tested on: RPMI-8226 leukemia
[23] = tested on: CAKI-1 renal
[24] = tested on: HT29 colon
[25] = tested on: SW-620 colon
[26] = tested on: COLO 205 colon
[27] = tested on: HL-60(TB) leukemia
[28] = tested on: XF 498 CNS
[29] = tested on: SK-MEL-5 melanoma
[30] = tested on: UACC-257 melanoma
[31] = tested on: HOP-62 NSCLC
[32] = tested on: HCT-15 colon
[33] = tested on: SF-539 CNS
[34] = tested on: 786-0 renal
[35] = tested on: SK-MEL-28 melanoma
[36] = tested on: ACHN renal
[37] = tested on: A498 renal
[38] = tested on: HOP-18 NSCLC
[39] = tested on: OVCAR-3 ovarian
[40] = tested on: EKVX NSCLC
[41] = tested on: DLD-1 colon
[42] = tested on: A549 NSCLC
[43] = tested on: LOX IMVI melanoma
[44] = tested on: OVCAR-8 ovarian
[45] = tested on: M19-MEL melanoma
[46] = tested on: SN12C renal
[47] = tested on: NCI-H226 lung
[48] = tested on: MALME-3M melanoma
[49] = tested on: SF-268 CNS
[50] = tested on: SK-MEL-2 melanoma
[51] = tested on: RXF 393 renal
[52] = tested on: OVCAR-5 ovarian
[53] = tested on: RXF-631 renal
[54] = tested on: HOP-92 NSCLC
[55] = tested on: UO-31 renal
[56] = tested on: NCI-H23 lung
[57] = tested on: KM12 colon

## CCOC(=O)NC(=O)c1cn(CCCOC(=O)CCCCCCCCC(=O)OCCCn2cc(C(=O)NC(=O)OCC)c(=O)[nH]c2=O)c(=O)[nH]c1=O
[1]
  TGI: 79.8 µM
[2]
  TGI: > 100 µM
[3]
  TGI: 50.2 µM
[4]
  TGI: 41.4 µM
[5]
  TGI: 49.8 µM
[6]
  TGI: 57.9 µM
[7]
  TGI: 69.1 µM
[8]
  TGI: 95.9 µM
[9]
  TGI: > 100 µM
[10]
  TGI: 21.6 µM
[11]
  TGI: 39.2 µM
[12]
  TGI: > 100 µM
[13]
  TGI: 57.4 µM
[14]
  TGI: > 100 µM
[15]
  TGI: 44.8 µM
[16]
  TGI: 30.7 µM
[17]
  TGI: 76 µM
[18]
  TGI: > 100 µM
[19]
  TGI: 58.1 µM
[20]
  TGI: > 100 µM
[21]
  TGI: 66.6 µM
[22]
  TGI: 38.3 µM
[23]
  TGI: 51.3 µM
[24]
  TGI: > 100 µM
[25]
  TGI: 60.3 µM
[26]
  TGI: 64.4 µM
[27]
  TGI: 26.4 µM
[28]
  TGI: 72.4 µM
[29]
  TGI: > 100 µM
[30]
  TGI: 48.4 µM
[31]
  TGI: > 100 µM
[32]
  TGI: 68.8 µM
[33]
  TGI: 82.1 µM
[34]
  TGI: 84.5 µM
[35]
  TGI: 64.8 µM
[36]
  TGI: 42.1 µM
[37]
  TGI: 67.5 µM
[38]
  TGI: 56.4 µM
[39]
  TGI: 34.8 µM
[40]
  TGI: > 100 µM
[41]
  TGI: 53.1 µM
[42]
  TGI: > 100 µM
[43]
  TGI: > 100 µM
[44]
  TGI: > 100 µM
[45]
  TGI: > 100 µM
[46]
  TGI: > 100 µM

## Cc1cc2c(c(C#N)c1C)NC(=O)C(CC(=O)O)C2=O (configuration not stated)
[1]
  TGI: > 100 µM
[2]
  TGI: > 100 µM
[3]
  TGI: > 100 µM
[4]
  TGI: > 100 µM
[5]
  TGI: > 100 µM
[6]
  TGI: > 100 µM
[7]
  TGI: > 100 µM
[8]
  TGI: > 100 µM
[47]
  TGI: > 100 µM
[9]
  TGI: > 100 µM
[10]
  TGI: > 100 µM
[11]
  TGI: > 100 µM
[12]
  TGI: > 100 µM
[14]
  TGI: > 100 µM
[48]
  TGI: > 100 µM
[49]
  TGI: > 100 µM
[15]
  TGI: > 100 µM
[16]
  TGI: > 100 µM
[17]
  TGI: > 100 µM
[18]
  TGI: > 100 µM
[50]
  TGI: > 100 µM
[19]
  TGI: > 100 µM
[20]
  TGI: > 100 µM
[21]
  TGI: > 100 µM
[22]
  TGI: > 100 µM
[23]
  TGI: > 100 µM
[24]
  TGI: > 100 µM
[25]
  TGI: > 100 µM
[26]
  TGI: > 100 µM
[27]
  TGI: > 100 µM
[28]
  TGI: > 100 µM
[29]
  TGI: > 100 µM
[30]
  TGI: > 100 µM
[51]
  TGI: > 100 µM
[31]
  TGI: > 100 µM
[32]
  TGI: > 100 µM
[52]
  TGI: > 100 µM
[53]
  TGI: > 100 µM
[54]
  TGI: > 100 µM
[33]
  TGI: > 100 µM
[34]
  TGI: > 100 µM
[35]
  TGI: > 100 µM
[36]
  TGI: > 100 µM
[37]
  TGI: > 100 µM
[38]
  TGI: > 100 µM
[39]
  TGI: > 100 µM
[40]
  TGI: > 100 µM
[55]
  TGI: > 100 µM
[41]
  TGI: > 100 µM
[42]
  TGI: > 100 µM
[56]
  TGI: > 100 µM
[43]
  TGI: > 100 µM
[44]
  TGI: > 100 µM
[45]
  TGI: > 100 µM
[46]
  TGI: > 100 µM
[57]
  TGI: > 100 µM
